Experimental data: patent US12540131B2 (Merck Sharp & Dohme LLC, priority 2019, dated 2026)

Molecular target: GST tagged truncated human mutant G2019S LRRK2 (Homo sapiens (Human), UniProt Q5S007, G2019S)
Assay: LRRK2 Km ATP LanthaScreen Assay
Type: biochemical
Conditions: G2019S LRRK2, 134 μM ATP (Km ATP), mean values; for IC50: read-out: LRRK2 pIC50 (converted)
How it was run: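 Enzyme (GST-tagged, truncated) was preincubated with compound for 15 min at RT in 50 mM Tris pH 8.5, 10 mM MgCl2, 0.01% Brij-35, 1 mM EGTA, 2 mM DTT and 0.05 mM orthovanadate. Fluorescein-LRRKtide and 134 μM ATP (Km) were then added for 90 min. EDTA and Tb-anti-pERM antibody stopped the reaction; the TR-FRET 520/495 ratio gave 4-parameter IC50s, reported as mean pIC50.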

Sequence of GST tagged truncated human mutant G2019S LRRK2 (Q5S007 970-2527 G2019S): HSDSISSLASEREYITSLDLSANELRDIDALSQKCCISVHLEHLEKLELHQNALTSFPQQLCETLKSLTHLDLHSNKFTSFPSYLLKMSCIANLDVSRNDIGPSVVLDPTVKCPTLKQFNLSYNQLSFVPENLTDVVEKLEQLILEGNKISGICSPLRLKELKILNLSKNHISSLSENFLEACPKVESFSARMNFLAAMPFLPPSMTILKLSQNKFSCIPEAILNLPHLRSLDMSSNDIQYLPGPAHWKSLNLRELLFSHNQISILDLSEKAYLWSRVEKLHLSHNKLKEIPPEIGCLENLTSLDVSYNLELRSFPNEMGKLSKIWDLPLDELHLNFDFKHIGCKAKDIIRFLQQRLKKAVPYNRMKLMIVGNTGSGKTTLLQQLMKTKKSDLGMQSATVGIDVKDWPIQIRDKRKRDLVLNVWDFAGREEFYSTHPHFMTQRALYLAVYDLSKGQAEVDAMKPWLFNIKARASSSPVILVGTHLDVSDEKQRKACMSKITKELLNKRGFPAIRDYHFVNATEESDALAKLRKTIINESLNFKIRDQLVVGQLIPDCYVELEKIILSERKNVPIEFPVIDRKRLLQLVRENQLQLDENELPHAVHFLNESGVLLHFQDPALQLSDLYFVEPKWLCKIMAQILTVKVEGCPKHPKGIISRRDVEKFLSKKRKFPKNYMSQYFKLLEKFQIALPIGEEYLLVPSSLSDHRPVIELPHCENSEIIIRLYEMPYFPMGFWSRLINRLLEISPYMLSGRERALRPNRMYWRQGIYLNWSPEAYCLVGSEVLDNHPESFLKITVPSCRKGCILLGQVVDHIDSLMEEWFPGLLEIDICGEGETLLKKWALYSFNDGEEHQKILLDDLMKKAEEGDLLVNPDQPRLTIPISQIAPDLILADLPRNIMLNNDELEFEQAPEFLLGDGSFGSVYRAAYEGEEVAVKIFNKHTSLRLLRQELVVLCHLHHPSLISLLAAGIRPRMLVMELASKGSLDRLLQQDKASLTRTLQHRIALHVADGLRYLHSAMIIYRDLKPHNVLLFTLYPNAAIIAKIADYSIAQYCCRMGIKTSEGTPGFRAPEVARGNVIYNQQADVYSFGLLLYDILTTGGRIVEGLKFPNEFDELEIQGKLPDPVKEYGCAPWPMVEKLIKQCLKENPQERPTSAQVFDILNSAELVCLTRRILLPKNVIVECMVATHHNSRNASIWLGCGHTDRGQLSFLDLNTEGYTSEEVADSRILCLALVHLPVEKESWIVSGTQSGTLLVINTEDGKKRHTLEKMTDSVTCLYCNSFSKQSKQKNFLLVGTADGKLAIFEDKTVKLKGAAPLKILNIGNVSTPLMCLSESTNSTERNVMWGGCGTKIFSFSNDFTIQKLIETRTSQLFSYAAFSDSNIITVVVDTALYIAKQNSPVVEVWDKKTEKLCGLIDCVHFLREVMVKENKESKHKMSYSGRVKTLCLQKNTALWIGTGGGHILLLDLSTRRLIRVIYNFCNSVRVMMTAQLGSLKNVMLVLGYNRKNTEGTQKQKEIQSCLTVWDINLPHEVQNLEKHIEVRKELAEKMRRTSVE

SMILES	LRRK2 pIC50	IC50 [nM]
Cc1c(Nc2ncc3cc(Cl)c([C@@H]4CCN([C@H]5COC[C@H]5O)C[C@H]4F)cc3n2)cnn1C1CC1(F)F (single isomer, unassigned) [Ex-4.180, (R)(3S,4S)(3S,4S) or (R)(3S,4S)(3R,4R) or (R)(3R,4R)(3S,4S) or (R)(3R,4R)(3R,4R) or (S)(3S,4S)(3S,4S) or (S)(3S,4S)(3R,4R) or (S)(3R,4R)(3S,4S) or (S)(3R,4R)(3R,4R) 4-(4-(6-chloro-2-((1-(2,2-difluorocyclopropyl)-5-methyl-1H-pyrazol-4-yl)amino)quinazolin-7-yl)-3-fluoropiperidin-1-yl)tetrahydrofuran-3-olyl]amino}quinazolin-7-yl)-3-fluoropiperidin-1-yl]oxolan-3-ol]	>9.20	–
Cc1c(Nc2ncc3cc(Cl)c(C4CCN(C[C@@H](O)c5ccc(F)cc5)CC4)cc3n2)cnn1C1CC1 [Ex-4.214, (1S)-2-(4-{6-chloro-2-[(1-cyclopropyl-5-methyl-1H-pyrazol-4-yl)amino]quinazolin-7-yl}piperidin-1-yl)-1-(4-fluorophenyl)ethan-1-ol]	8.62	–
Cc1c(Nc2ncc3cc(Cl)c(C4CCN(CC(O)CN5CCOCC5)CC4)cc3n2)cnn1C1CC1 (single isomer, unassigned) [Ex-4.228, (S) or (R) 1-(4-{6-chloro-2-[(1-cyclopropyl-5-methyl-1H-pyrazol-4-yl)amino]quinazolin-7-yl}piperidin-1-yl)-3-(morpholin-4-yl)propan-2-ol]	–	1.55
Cc1c(Nc2ncc3cc(Cl)c(C4CCN(C5CC[C@@H]6C[C@H]56)CC4)cc3n2)cnn1C1CC1 (stereo partly drawn) [Ex-4.172, 7-{1-[(1S,5R)-bicyclo[3.1.0]hexan-2-yl]piperidin-4-yl}-6-chloro-N-(1-cyclopropyl-5-methyl-1H-pyrazol-4-yl)quinazolin-2-amine]	7.53	–
Clc1cc2cnc(Nc3cnn(C4CC4)c3Cl)nc2cc1C1CCN(C2COC(C3CC3)C2)CC1 (single isomer, unassigned) [Ex-4.166, (3R,5R) or (3S,5R) or (3R,5S) or (3S,5S) 6-chloro-N-(5-chloro-1-cyclopropyl-1H-pyrazol-4-yl)-7-[1-(5-cyclopropyloxolan-3-yl)piperidin-4-yl]quinazolin-2-amine]	9.17	–
CC1CC(c2cc3nc(Nc4cnn(C5CC5)c4Cl)ncc3cc2Cl)CCN1C1COC1 (single isomer, unassigned) [Ex-4.107, (2S,4S) or (2R,4R) or (2S,4R) or (2R,4S) 6-chloro-N-(5-chloro-1-cyclopropyl-1H-pyrazol-4-yl)-7-(2-methyl-1-(oxetan-3-yl)piperidin-4-yl)quinazolin-2-amine]	8.52	–
Cc1c(Nc2ncc3cc(Cl)c(C4CCN(C5COC5C)CC4)cc3n2)cnn1C(C)(C)C#N (single isomer, unassigned) [Ex-4.134, (2R,3R) or (2S,3S) or (2S,3R) or (2R,3S) 2-[4-({6-chloro-7-[1-(2-methyloxetan-3-yl)piperidin-4-yl]quinazolin-2-yl}amino)-5-methyl-1H-pyrazol-1-yl]-2-methylpropanenitrile]	>9.20	–
Cc1cc2cnc(Nc3cnn(C4CC4)c3Cl)nc2cc1[C@H]1CCN(C2COC2)C[C@@H]1F (single isomer, unassigned) [Ex-4.85, (3S,4S) or (3R,4R) N-(5-chloro-1-cyclopropyl-1H-pyrazol-4-yl)-7-[3-fluoro-1-(oxetan-3-yl)piperidin-4-yl]-6-methylquinazolin-2-amine]	8.76	–
Cn1nc(C(F)(F)F)cc1Nc1ncc2cc(Cl)c(C3CCN([C@]4(C)COC[C@@H]4O)CC3)cc2n1 (single isomer, unassigned) [Ex-2.89, (3S,4S) or (3R,4R) 4-[4-(6-chloro-2-{[1-methyl-3-(trifluoromethyl)-1H-pyrazol-5-yl]amino}quinazolin-7-yl)piperidin-1-yl]-4-methyloxolan-3-ol]	7.39	–
CC1(C)CC(N2CCC(c3cc4nc(Nc5cnn(C6CC6)c5Cl)ncc4cc3Cl)CC2)CO1 (single isomer, unassigned) [Ex-4.117, (R) or (S) 6-chloro-N-(5-chloro-1-cyclopropyl-1H-pyrazol-4-yl)-7-(1-(5,5-dimethyltetrahydrofuran-3-yl)piperidin-4-yl)quinazolin-2-amine]	–	< 0.631
Cc1c(Nc2ncc3cc(Cl)c(C4CCC(C)(O)CC4)cc3n2)cnn1C1CC1 (stereo not drawn) [Ex-2.63, cis- or trans-4-{6-chloro-2-[(1-cyclopropyl-5-methyl-1H-pyrazol-4-yl)amino]quinazolin-7-yl}-1-methylcyclohexan-1-ol]	8.92	–
CN1CC[C@@H](c2cc3nc(Nc4cnn(CC(C)(C)O)c4Cl)ncc3cc2Cl)[C@H](F)C1 (single isomer, unassigned) [Ex-4.22, (3S,4S) or (3R,4R) 1-(5-chloro-4-{[6-chloro-7-(3-fluoro-1-methylpiperidin-4-yl)quinazolin-2-yl]amino}-1H-pyrazol-1-yl)-2-methylpropan-2-ol]	>9.20	–
Cc1c(Nc2ncc3cc(Cl)c(C4CCN([C@@H]5COC[C@@H]5O)CC4)cc3n2)cnn1C1CC1(F)F (single isomer, unassigned) [Ex-4.182, (R)(3S,4S) or (S)(3S,4S) or (R)(3R,4R) or (S)(3R,4R) 4-[4-(6-chloro-2-{[1-(2,2-difluorocyclopropyl)-5-methyl-1H-pyrazol-4-yl]amino}quinazolin-7-yl)piperidin-1-yl]oxolan-3-ol]	>9.20	–
CC1OCC1N1CCC(c2cc3nc(Nc4cnn(C5CC5)c4Cl)ncc3cc2Cl)CC1 (single isomer, unassigned) [Ex-4.46, (2R,3R) or (2S,3S) or (2S,3R) or (2R,3S) 6-chloro-N-(5-chloro-1-cyclopropyl-1H-pyrazol-4-yl)-7-[1-(2-methyloxetan-3-yl)piperidin-4-yl]quinazolin-2-amine]	9.13	–
Cc1cc2cnc(Nc3cc(C(F)(F)F)nn3C)nc2cc1C1CCN([C@]2(C)COC[C@@H]2O)CC1 (single isomer, unassigned) [Ex-5.15, (3S,4S) or (3R,4R) 4-methyl-4-[4-(6-methyl-2-{[1-methyl-3-(trifluoromethyl)-1H-pyrazol-5-yl]amino}quinazolin-7-yl)piperidin-1-yl]oxolan-3-ol]	8.42	–
Cc1c(Nc2ncc3cc(Cl)c(C4CCN(C5CCC(CC#N)C5)CC4)cc3n2)cnn1C1CC1 (single isomer, unassigned) [Ex-4.171, (1R,3R) or (1S,3R) or (1R,3S) or (1S,3S) [3-(4-{6-chloro-2-[(1-cyclopropyl-5-methyl-1H-pyrazol-4-yl)amino]quinazolin-7-yl}piperidin-1-yl)cyclopentyl]acetonitrile]	8.51	–
Cc1c(Nc2ncc3cc(Cl)c(C4CCN(C[C@H](O)CN5CCCC5=O)CC4)cc3n2)cnn1C1CC1 [Ex-4.216, 1-[(2S)-3-(4-{6-chloro-2-[(1-cyclopropyl-5-methyl-1H-pyrazol-4-yl)amino]quinazolin-7-yl}piperidin-1-yl)-2-hydroxypropyl]pyrrolidin-2-one]	9.05	–
